Source: ChEMBL document CHEMBL5543119, “Discovery of Novel 11-Membered Templates as Squalene Synthase Inhibitors” (J Med Chem, 2024)
pIC50: −log10 of the molar value.

system: Hamster; experiment: Lipid lowering effect in hamster assessed as reduction in total cholesterol level in serum at 100 mg/kg, po bid administered at 9 a.m and 4 p.m for 14 days relative to control; type: functional, Cricetinae; set-up: scale not given: the % may be the effect or the level left; settings: time 14 day

Structure (SMILES)	Activity [%]
COc1cccc([C@H]2O[C@H](CC(=O)N3CCC(CC(=O)O)CC3)C(=O)N(CC(C)(C)CO)c3ccc(Cl)cc32)c1OC	2

biological target: T1, Squalene synthase (Rattus norvegicus, UniProt Q02769); experiment: Inhibition of squalene synthase in rat liver microsomes using [3H] farnesyl pyrophosphate as substrate preincubated for 10 mins followed by substrate addition and measured after 30 mins by liquid scintillation counter analysis; set-up: species or system Microsome; settings: not given
T1 sequence (Q02769 whole entry): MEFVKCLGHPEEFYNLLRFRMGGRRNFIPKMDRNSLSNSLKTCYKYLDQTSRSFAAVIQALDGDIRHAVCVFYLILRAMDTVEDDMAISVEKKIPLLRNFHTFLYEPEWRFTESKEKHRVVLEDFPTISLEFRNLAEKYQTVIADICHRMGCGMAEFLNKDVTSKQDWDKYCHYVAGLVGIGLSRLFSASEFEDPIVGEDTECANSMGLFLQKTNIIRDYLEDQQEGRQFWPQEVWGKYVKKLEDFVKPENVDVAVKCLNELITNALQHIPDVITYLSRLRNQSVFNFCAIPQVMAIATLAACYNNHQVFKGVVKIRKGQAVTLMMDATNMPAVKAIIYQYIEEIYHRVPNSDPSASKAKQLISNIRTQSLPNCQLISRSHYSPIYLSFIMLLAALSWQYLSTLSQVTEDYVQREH

Structure (SMILES)	pIC50
COc1ccccc1C1OCCCN(C(=O)C(=O)O)CC(=O)N(CC(C)(C)C)c2ccc(Cl)cc21 (centres undefined)	≤ 6.59
COc1ccccc1C1OCCN([C@H]2CC[C@@H](C(=O)O)CC2)C(=O)CC(=O)N(CC(C)(C)C)c2ccc(Cl)cc21 (some centres undefined)	6.35
COc1ccccc1C1OCCN([C@H]2CC[C@H](C(=O)O)CC2)C(=O)CC(=O)N(CC(C)(C)C)c2ccc(Cl)cc21 (some centres undefined)	7.64
CCOC(=O)C1CCC(N2CCOC(c3ccccc3OC)c3cc(Cl)ccc3N(CC(C)(C)C)C(=O)CC2=O)CC1 (centres undefined)	7.52
CCOC(=O)C1CCN(C(=O)CN2CC(=O)N(CC(C)(C)C)c3ccc(Cl)cc3C(c3ccccc3OC)OCCC2=O)CC1 (centres undefined)	< 6.22
COc1ccccc1C1OCCN([C@H]2CCC[C@H](C(=O)O)C2)C(=O)CC(=O)N(CC(C)(C)C)c2ccc(Cl)cc21 (some centres undefined)	< 6.22
CCOC(=O)C1CCCN(C(=O)N2CCCOC(c3ccccc3OC)c3cc(Cl)ccc3N(CC(C)(C)C)C(=O)C2)C1 (centres undefined)	< 6.22
COc1ccccc1C1OCCN(CC(=O)N2CCC(C(=O)O)CC2)C(=O)CC(=O)N(CC(C)(C)C)c2ccc(Cl)cc21 (centres undefined)	< 6.22
CCOC(=O)[C@H]1CC[C@H](N2CCOC(c3ccccc3OC)c3cc(Cl)ccc3N(CC(C)(C)C)C(=O)CC2=O)CC1 (some centres undefined)	7.80
CCOC(=O)[C@@H]1CCC[C@H](N2CCOC(c3ccccc3OC)c3cc(Cl)ccc3N(CC(C)(C)C)C(=O)CC2=O)C1 (some centres undefined)	7.77
COc1ccccc1[C@@H]1OCCCN(C(=O)N2CCC(CC(=O)O)CC2)CC(=O)N(CC(C)(C)C)c2ccc(Cl)cc21	5.85
CCOC(=O)C1CCCN(C(=O)CN2CCOC(c3ccccc3OC)c3cc(Cl)ccc3N(CC(C)(C)C)C(=O)CC2=O)C1 (centres undefined)	7.19
COc1ccccc1C1OCCN(CC(=O)N2CCCC(C(=O)O)C2)C(=O)CC(=O)N(CC(C)(C)C)c2ccc(Cl)cc21 (centres undefined)	< 6.22
COc1ccccc1C1OCCC(=O)N(CC(=O)O)CC(=O)N(CC(C)(C)C)c2ccc(Cl)cc21 (centres undefined)	< 6.22
COc1ccccc1C1OCCNCCC(=O)N(CC(C)(C)C)c2ccc(Cl)cc21 (centres undefined)	< 6.22
COc1ccccc1C1OCCN([C@@H]2CCC[C@H](C(=O)O)C2)C(=O)CC(=O)N(CC(C)(C)C)c2ccc(Cl)cc21 (some centres undefined)	8.33
CCOC(=O)C1CCCN(C(=O)CN2CC(=O)N(CC(C)(C)C)c3ccc(Cl)cc3C(c3ccccc3OC)OCCC2=O)C1 (centres undefined)	< 6.22
COc1ccccc1C1OCCC(=O)N(CC(=O)N2CCCC(C(=O)O)C2)CC(=O)N(CC(C)(C)C)c2ccc(Cl)cc21 (centres undefined)	< 6.22
COc1ccccc1C1OCCN(C(=O)C(=O)O)CCC(=O)N(CC(C)(C)C)c2ccc(Cl)cc21 (centres undefined)	< 6.22
COc1ccccc1C1OCCCNCC(=O)N(CC(C)(C)C)c2ccc(Cl)cc21 (centres undefined)	< 6.22
CCOC(=O)[C@@H]1CCC[C@@H](N2CCOC(c3ccccc3OC)c3cc(Cl)ccc3N(CC(C)(C)C)C(=O)CC2=O)C1 (some centres undefined)	7.72
COc1ccccc1C1OCCCN(C(=O)N2CCC(C(=O)O)CC2)CC(=O)N(CC(C)(C)C)c2ccc(Cl)cc21 (centres undefined)	7.92
COc1ccccc1C1OCCN([C@@H]2CCC[C@@H](C(=O)O)C2)C(=O)CC(=O)N(CC(C)(C)C)c2ccc(Cl)cc21 (some centres undefined)	8.40
COc1ccccc1C1OCCN(CC(=O)O)C(=O)CC(=O)N(CC(C)(C)C)c2ccc(Cl)cc21 (centres undefined)	< 6.22
COc1ccccc1C1OCCN(C2CCCN(C(=O)C(=O)O)C2)C(=O)CC(=O)N(CC(C)(C)C)c2ccc(Cl)cc21 (centres undefined)	7.68

Structure (SMILES)	pIC50
COc1ccccc1C1OCCN(C(=O)C(F)(F)F)CCC(=O)N(CC(C)(C)C)c2ccc(Cl)cc21 (centres undefined)	< 6.22
CCOC(=O)C(=O)N1CCCOC(c2ccccc2OC)c2cc(Cl)ccc2N(CC(C)(C)C)C(=O)C1 (centres undefined)	< 6.22
CCOC(=O)C(=O)N1CCC(N2CCOC(c3ccccc3OC)c3cc(Cl)ccc3N(CC(C)(C)C)C(=O)CC2=O)CC1 (centres undefined)	7.60
COc1ccccc1C1OCCCN(C(=O)N2CCCC(C(=O)O)C2)CC(=O)N(CC(C)(C)C)c2ccc(Cl)cc21 (centres undefined)	6.77
COc1ccccc1C1OCCCN(S(=O)(=O)c2ccccc2[N+](=O)[O-])CC(=O)N(CC(C)(C)C)c2ccc(Cl)cc21 (centres undefined)	< 6.22
CCOC(=O)C1CCN(C(=O)N2CCCOC(c3ccccc3OC)c3cc(Cl)ccc3N(CC(C)(C)C)C(=O)C2)CC1 (centres undefined)	7.33
COc1ccccc1C1OCC(=O)NCCC(=O)N(CC(C)(C)C)c2ccc(Cl)cc21 (centres undefined)	< 6.22
CCOC(=O)[C@H]1CCC[C@@H](N2CCOC(c3ccccc3OC)c3cc(Cl)ccc3N(CC(C)(C)C)C(=O)CC2=O)C1 (some centres undefined)	7.74
CCOC(=O)C1CCN(C(=O)CN2CCOC(c3ccccc3OC)c3cc(Cl)ccc3N(CC(C)(C)C)C(=O)CC2=O)CC1 (centres undefined)	6.41
COc1ccccc1C1OCCN(C2CCC(C(=O)O)CC2)C(=O)CC(=O)N(CC(C)(C)C)c2ccc(Cl)cc21 (centres undefined)	7.34
CCOC(=O)[C@H]1CC[C@@H](N2CCOC(c3ccccc3OC)c3cc(Cl)ccc3N(CC(C)(C)C)C(=O)CC2=O)CC1 (some centres undefined)	7.59
COc1ccccc1C1OCCC(=O)N(CC(=O)N2CCC(C(=O)O)CC2)CC(=O)N(CC(C)(C)C)c2ccc(Cl)cc21 (centres undefined)	< 6.22
CCOC(=O)C(=O)N1CCCC(N2CCOC(c3ccccc3OC)c3cc(Cl)ccc3N(CC(C)(C)C)C(=O)CC2=O)C1 (centres undefined)	7.85
CCOC(=O)[C@H]1CCC[C@H](N2CCOC(c3ccccc3OC)c3cc(Cl)ccc3N(CC(C)(C)C)C(=O)CC2=O)C1 (some centres undefined)	7.27
COc1ccccc1C1OCC(=O)N(CC(=O)O)CCC(=O)N(CC(C)(C)C)c2ccc(Cl)cc21 (centres undefined)	< 6.22
CCOC(=O)CC1CCN(C(=O)N2CCCOC(c3ccccc3OC)c3cc(Cl)ccc3N(CC(C)(C)C)C(=O)C2)CC1 (centres undefined)	7.70
COc1ccccc1[C@H]1OCCCN(C(=O)N2CCC(CC(=O)O)CC2)CC(=O)N(CC(C)(C)C)c2ccc(Cl)cc21	8.36
COc1ccccc1[C@@H](O)c1cc(Cl)ccc1N(CC(C)(C)C)C(=O)CCC(=O)N1CCC[C@H](C(=O)O)C1	9.22
COc1ccccc1C1OCCN(C2CCN(C(=O)C(=O)O)CC2)C(=O)CC(=O)N(CC(C)(C)C)c2ccc(Cl)cc21 (centres undefined)	< 6.22
CCOC(=O)CN1CCOC(c2ccccc2OC)c2cc(Cl)ccc2N(CC(C)(C)C)C(=O)CC1=O (centres undefined)	6.85
CCOC(=O)CN1CC(=O)N(CC(C)(C)C)c2ccc(Cl)cc2C(c2ccccc2OC)OCCC1=O (centres undefined)	< 6.22
CCOC(=O)CN1CCC(=O)N(CC(C)(C)C)c2ccc(Cl)cc2C(c2ccccc2OC)OCC1=O (centres undefined)	< 6.22
COc1ccccc1C1OCCN([C@H]2CCC[C@@H](C(=O)O)C2)C(=O)CC(=O)N(CC(C)(C)C)c2ccc(Cl)cc21 (some centres undefined)	< 6.22
COc1ccccc1C1OCCCN(C(=O)N2CCC(CC(=O)O)CC2)CC(=O)N(CC(C)(C)C)c2ccc(Cl)cc21 (centres undefined)	8.15
CCOC(=O)C(=O)N1CCOC(c2ccccc2OC)c2cc(Cl)ccc2N(CC(C)(C)C)C(=O)CC1 (centres undefined)	< 6.22

system: Hepatocyte; experiment: Inhibition of cholesterol biosynthesis in rat hepatocytes preincubated for 1 hr followed by [14C]mevalonolactone addition and measured after 1 hr by liquid scintillation counter analysis; type: functional, cell-based; settings: not given

Structure (SMILES)	pIC50
COc1ccccc1[C@@H]1OCCCN(C(=O)N2CCC(CC(=O)O)CC2)CC(=O)N(CC(C)(C)C)c2ccc(Cl)cc21	< 5.52
COc1ccccc1[C@H]1OCCCN(C(=O)N2CCC(CC(=O)O)CC2)CC(=O)N(CC(C)(C)C)c2ccc(Cl)cc21	6.92
COc1ccccc1[C@@H](O)c1cc(Cl)ccc1N(CC(C)(C)C)C(=O)CCC(=O)N1CCC[C@H](C(=O)O)C1	6.92

system: not listed separately; experiment: Effect on triglyceride level in hamster assessed as increase in triglyceride level in serum at 100 mg/kg, po bid administered at 9 a.m and 4 p.m for 14 days relative to control; type: functional, Cricetinae; settings: time 14 day

Structure (SMILES)	Activity [%]
COc1cccc([C@H]2O[C@H](CC(=O)N3CCC(CC(=O)O)CC3)C(=O)N(CC(C)(C)CO)c3ccc(Cl)cc32)c1OC	8

system: marmosets; experiment: Lipid lowering effect in chow diet fed marmosets assessed as reduction in total cholesterol level in serum at 10 mg/kg, po qd administered once a day to 9 to 10 a.m for 7 days relative to control; type: functional, Callitrichinae sp.; set-up: scale not given: the % may be the effect or the level left; settings: time 7 day

Structure (SMILES)	Activity [%]
COc1cccc([C@H]2O[C@H](CC(=O)N3CCC(CC(=O)O)CC3)C(=O)N(CC(C)(C)CO)c3ccc(Cl)cc32)c1OC	24

system: marmosets; experiment: Lipid lowering effect in chow diet fed marmosets assessed as reduction in non-HDL level in serum at 10 mg/kg, po qd administered once a day to 9 to 10 a.m for 7 days relative to control; type: functional, Callitrichinae sp.; set-up: scale not given: the % may be the effect or the level left; settings: time 7 day

Structure (SMILES)	Activity [%]
COc1cccc([C@H]2O[C@H](CC(=O)N3CCC(CC(=O)O)CC3)C(=O)N(CC(C)(C)CO)c3ccc(Cl)cc32)c1OC	34

system: marmosets; experiment: Lipid lowering effect in chow diet fed marmosets assessed as reduction in HDL level in serum at 10 mg/kg, po qd administered once a day to 9 to 10 a.m for 7 days relative to control; type: functional, Callitrichinae sp.; set-up: scale not given: the % may be the effect or the level left; settings: time 7 day

Structure (SMILES)	Activity [%]
COc1cccc([C@H]2O[C@H](CC(=O)N3CCC(CC(=O)O)CC3)C(=O)N(CC(C)(C)CO)c3ccc(Cl)cc32)c1OC	3

system: marmosets; experiment: Lipid lowering effect in chow diet fed marmosets assessed as reduction in triglyceride level in serum at 10 mg/kg, po qd administered once a day to 9 to 10 a.m for 7 days relative to control; type: functional, Callitrichinae sp.; set-up: scale not given: the % may be the effect or the level left; settings: time 7 day

Structure (SMILES)	Activity [%]
COc1cccc([C@H]2O[C@H](CC(=O)N3CCC(CC(=O)O)CC3)C(=O)N(CC(C)(C)CO)c3ccc(Cl)cc32)c1OC	38
